Data published in PMC6367500, “18β-glycyrrhetyl-3-O-sulfate would be a causative agent of licorice-induced pseudoaldosteronism” (Scientific Reports, 2019).

Test: Biliary excretion of GA metabolites in SD rats injected i.v. with GA
Format: in vivo
Settings: GA 0.2 mg/kg i.v.
Protocol: Figure 3 Pharmacokinetic profiles of GL metabolites in SD rats (A,C,E,F) and EHBRs (B,D) after the administration of GA. GA (200 mg/kg) was administered orally to anesthetized SD rats or EHBRs, and plasma and urine were collected for 12 h (A–D). GA (0.2 mg/kg) was intravenously injected into anesthetized SD rats in which the biliary tract was cannulated. Then, bile samples were collected for 4 h (E). GA (0.2 mg/kg) was intravenously injected into conscious SD rats, and the feces was collected for 24 h. […] Since the determined lavels of 3MGA for B and D, 3 for C, GA for D, and all compounds except for 3 for E were relatively low; their magnified versions of their graphs are shown at the top or as an inside of each graph. The concentrations of GA metabolites were measured by LC-MS/MS, and data are plotted as mean ± S.E. (n = 4 for A–D,F; n = 3 for E).
GA, 3MGA, and compounds 1–3 were gradually excreted into the bile in SD rats injected i.v. with GA (0.2 mg/kg) and the accumulation of 3 in the bile at 4 h was 12-, 1.5 × 10^3-, 32-, and 15-fold those of GA, 3MGA, 1, and 2, respectively (Fig. 3E). […] GA, 3, and 2 were found in the feces of SD rats collected for 24 h after the i.v. injection of GA (0.2 mg/kg), while 3MGA and 1 were not found in the feces (Fig. 3F).
Female SD rats or EHBRs (9-week-old) were anesthetized by an intraperitoneal (i.p.) injection of urethane (1 g/kg) and their jugular veins were exposed. GA suspended in 0.5% CMC was then administered orally (200 mg/kg) to the unconscious rats, and blood samples were collected from the jugular vein; urine samples were collected using a metabolic cage at an appropriate time over a 12-h period. […] Feces were homogenized in phosphate-buffered saline (PBS; 0.15 M, pH 7.2), centrifuged (1.2 × 10^4 g, 10 min), and the supernatants were collected. After 1 week as a washout period, female SD rats were anesthetized by an i.p. injection of urethane (1 g/kg) and their biliary tract was cannulated. GA (0.2 mg/kg) was injected into the jugular vein, and the bile was collected every hour for 4 h. Aliquots (10 µl) of plasma, urine, homogenate of feces, or bile were mixed with 20 µl of subtilisin (0.91 U/ml) and incubated at 37 °C for 30 min, followed by the addition of 70 µl of astragaloside IV solution (1 µg/ml in ethanol containing 0.5% formic acid, used as internal standard), and kept at −20 °C for 30 min. […] The transitions (precursor to daughter) monitored and retention times were as follows: ESI(+) 743.4 to 567.5 m/z for compound 1 (5.5 min), ESI(−) 565.5 to 96.5 m/z for 2 (6.2 min), ESI(−) 549.5 to 96.5 m/z for 3 (8.1 min), ESI(+) 647.6 to 453.6 m/z for 3MGA (9.2 min), ESI(+) 471.3 to 91.0 m/z for GA (8.8 min), ESI(+) 823.5 to 453.6 m/z for GL (10.8 min), and ESI(+) 785.4 to 143.0 m/z for astragaloside IV (3.0 min). Linear regressions over the concentration range of 32 nM to 20 µM for each compound were examined using the peak-area ratio of the compounds to their internal standards and the least-squares method (r^2 > 0.98).

SMILES: CC1(C)[C@@H](OS(=O)(=O)O)CC[C@]2(C)[C@H]3C(=O)C=C4[C@@H]5C[C@@](C)(C(=O)O)CC[C@]5(C)CC[C@@]4(C)[C@]3(C)CC[C@@H]12 [compound 3, 18β-glycyrrhetyl-3-O-sulfate]
- rank among GA metabolites eliminated into bile: major metabolite of GA eliminated into the bile
- accumulation in bile at 4 h relative to that of 1 (biliary tract cannulated): 32 fold
- accumulation in bile at 4 h relative to that of 2 (biliary tract cannulated): 15 fold
- accumulation in bile at 4 h relative to that of 3MGA (biliary tract cannulated): 1.5 × 10^3 fold
- accumulation in bile at 4 h relative to that of GA (biliary tract cannulated): 12 fold
